Measured values reported in patent US9028856B2, “Synergistic pesticide compositions” (priority 2008, dated 2015).

Columns and labels:
[1] = system: malaria mosquito (Anopheles gambiae); test: Five-minute exposure bioassay, WHO Adult Mosquito Susceptibility Test Kit, treated filter paper; format: in vivo; settings: for KT 50 / KT 95 / % knock down after 10′ / % knock down after 15′ / % knock down after 20′ / % knock down after 25′ / % knock down after 30′ / % knock down after 45′ / % knock down after 60′ / % mortality 1 d: Table 80, filter paper (mg/m^2); for % mortality 1 d: mortality 24 hours post exposure; for % knock down after 5′: Table 80, technical sample on filter paper (mg/m^2)
Experimental: The bioassays were carried out using the WHO Adult Mosquito Susceptibility Test Kit, (WHO/VBC 81.805, 1981) with plastic cylinders (4.5 cm diameter, 12 cm height). All bioassays were done using preferably female sugar fed Anopheles gambiae mosquitoes. Knock down was recorded after at 5, 10, 15, 20, 25, 30, 45 and 60 minutes, when the mosquitoes were supplied with a 5% sugar water source for 24 hours. Mortality was recorded 24 hours post exposure. Each test consisted of three replicates from which the mean values were calculated. The insecticides (all technical grades) were applied as 2 ml acetone solutions onto filter papers (12 cm×15 cm).

[2] = system: tropical house mosquito Culex quinquefasciatus (adults, 3 days old); test: Efficacy of formulations on surfaces (glazed/unglazed tiles, plywood), ten 3 day old mosquitoes, 3 min exposure; format: in vivo; settings: for efficacy enhancement of the insecticide by the additive (summary in words): Culex quinquefasciatus, 3 min exposure, mostly 0.1% bendiocarb + 1% additive on glazed tiles, details as worded; for % KD and Mortality: in acetone on glazed tiles, Table 84
Experimental: The ingredients were diluted in acetone to give a concentration which corresponds to the desired quantity of a.i./m^2. A 1 ml quantity of the solution was applied by pipette onto the 15 cm×15 cm surfaces without treating the outer edge of 1 cm.
(§1) Ten 3 day old Culex quinquefasciatus mosquitoes were exposed to each treatment for 3 minutes under a perforated petri dish, and then a clean untreated white paper index card was moved between treated surface and petri dish. A water-soaked cotton pad was applied immediately after.
Each test consisted of three replicates (three batches of ten mosquitoes were exposed for three minutes to the same surface, each one hour later), of which the mean values are calculated.
The test insects were Culex quinquefasciatus (adults, 3 days old). The compositions were evaluated for their ability to provide effective knock down after 3, 9, 15, and 30 minutes, 1, 2, 3, 4 and 24 hours (mortality). The experiments were performed in triplicate on glazed tile, but not repeated on wood.
Test Insects are Culex quinquefasciatus (adults, 3 days old). The Application provides the technical compounds were dissolved in acetone and applied as 1 ml solutions onto glazed tiles (15 cm×15 cm). An evaluation is provided at knock down after 3, 9, 15, and 30 minutes, 1, 2, 3, 4 and 24 hours (mortality). There are 3 replicates.
Test Insects: Culex quinquefasciatus (adults, 3 days old)
Application: The technical compounds were dissolved in acetone and applied as 1 ml solutions onto glazed tiles (15 cm×15 cm).
Evaluation: Knock down after 3, 9, 15, and 30 minutes, 1, 2, 3, 4 and 24 hours (mortality) […]
Application: The active ingredients were applied as 1 ml acetone solutions onto glazed tiles (15 cm×15 cm) […]
as §1, with “For the mosquitoes, the USDA Petri Dish Method is used. Ten” for “Ten”, “are” for “were”, “dish” for “dish,”, “is” for “was”, “after. […]” for “after.”

SMILES	KT 50 [1] [min]	KT 95 [1] [min]	% knock down after 10′ [1] [%]	% knock down after 15′ [1] [%]	% knock down after 20′ [1] [%]	% knock down after 25′ [1] [%]	% knock down after 30′ [1] [%]	% knock down after 45′ [1] [%]	% knock down after 60′ [1] [%]	% mortality 1 d [1] [%]	% knock down after 5′ [1] [%]	other results
CC1(C)C(C=C(Br)Br)C1C(=O)OC(C#N)c1cccc(Oc2ccccc2)c1 (stereo not drawn) [20 mg DTM]	21	>60	23	39	45	52	66	79	86	75	9	–
CNC(=O)Oc1cccc2c1OC(C)(C)O2 [40 mg bendiocarb]	12	>60	50	56	68	74	76	81	85	94	16	–
CC1(C)[C@H](C(=O)O[C@H](C#N)c2cccc(Oc3ccccc3)c2)[C@@H]1C=C(Br)Br [40 mg DTM]	10	40	53	66	76	92	97	100	100	83	22	–
CC1(C)[C@H](C(=O)O[C@H](C#N)c2cccc(Oc3ccccc3)c2)[C@@H]1C=C(Br)Br [5 mg DTM]	>60	>60	6	4	6	6	7	15	19	13	6	–
CCCCCCCCON1C(C)(C)CC(OC(=O)CCCCCCCCC(=O)OC2CC(C)(C)N(OCCCCCCCC)C(C)(C)C2)CC1(C)C [Derivative 5, Bis(1-octyloxy-2,2,6,6-tetramethyl-4-piperidyl)sebacate]	–	–	–	–	–	–	–	–	–	–	–	efficacy enhancement of the insecticide by the additive (summary in words) [2]: weaker as Compound A in both tests; efficacy enhancement of the insecticide by the additive (summary in words) ([2]; listed as bis(1-octyloxy-2,2,6,6-tetramethyl-4-piperidyl)sebacate): inhibited the efficacy of bendiocarb
O=C(O)CCCCCCCCC(=O)O [Derivative 2, Sebacic acid]	–	–	–	–	–	–	–	–	–	–	–	efficacy enhancement of the insecticide by the additive (summary in words) ([2]; listed as Sebacic acid): no efficacy enhancement; efficacy enhancement of the insecticide by the additive (summary in words) ([2]; listed as derivative 2): acted weaker in both tests
CNC(=O)Oc1cccc2c1OC(C)(C)O2 [20 mg Bendiocarb]	>60	>60	6	4	6	13	13	20	21	27	3	–
O=C(O)CCCCCCCCC(=O)O [1% Sebacic acid]	–	–	–	–	–	–	–	–	–	–	–	% KD and Mortality ([2]; 3′): 3%; % KD and Mortality ([2]; 9′): 3%; % KD and Mortality ([2]; 15′): 3%; % KD and Mortality ([2]; 30′): 3%; % KD and Mortality ([2]; 1 h): 3%; % KD and Mortality ([2]; 2 h): 3%; % KD and Mortality ([2]; 3 h): 3%; % KD and Mortality ([2]; 4 h): 3%; % KD and Mortality ([2]; 24 h (mortality)): 13%
CNC(=O)Oc1cccc2c1OC(C)(C)O2 [5 mg Bendiocarb]	>60	>60	6	6	6	6	6	6	6	12	6	–
CNC(=O)Oc1cccc2c1OC(C)(C)O2 [10 mg Bendiocarb]	>60	>60	2	2	27	2	2	2	2	9	2	–
CCCCCCCCON1C(C)(C)CC(OC(=O)CCCCCCCCC(=O)OC2CC(C)(C)N(OCCCCCCCC)C(C)(C)C2)CC1(C)C	–	–	–	–	–	–	–	–	–	–	–	% KD and Mortality ([2]; 3′): 3%; % KD and Mortality ([2]; 9′): 3%; % KD and Mortality ([2]; 15′): 3%; % KD and Mortality ([2]; 30′): 3%; % KD and Mortality ([2]; 1 h): 3%; % KD and Mortality ([2]; 2 h): 3%; % KD and Mortality ([2]; 3 h): 3%; % KD and Mortality ([2]; 4 h): 3%; % KD and Mortality ([2]; 24 h (mortality)): 7%
CC1(C)CC(O)CC(C)(C)N1 [Derivative 7, 4-Hydroxy-2,2,6,6-tetramethylpiperidine]	–	–	–	–	–	–	–	–	–	–	–	efficacy enhancement of the insecticide by the additive (summary in words) [2]: superior to Compound A in the first test and inferior in the second test
CC1(C)CC(O)CC(C)(C)N1	–	–	–	–	–	–	–	–	–	–	–	% KD and Mortality ([2]; 3′): 0%; % KD and Mortality ([2]; 9′): 0%; % KD and Mortality ([2]; 15′): 0%; % KD and Mortality ([2]; 30′): 0%; % KD and Mortality ([2]; 1 h): 0%; % KD and Mortality ([2]; 2 h): 0%; % KD and Mortality ([2]; 3 h): 0%; % KD and Mortality ([2]; 4 h): 0%; % KD and Mortality ([2]; 24 h (mortality)): 3%
CC1(C)[C@H](C(=O)O[C@H](C#N)c2cccc(Oc3ccccc3)c2)[C@@H]1C=C(Br)Br [10 mg DTM]	>60	>60	2	2	2	5	9	18	26	17	0	–
CN1C(C)(C)CC(O)CC1(C)C [1% 1,2,2,6,6-Pentamethyl-4-piperidinol]	–	–	–	–	–	–	–	–	–	–	–	% KD and Mortality ([2]; 3′): 0%; % KD and Mortality ([2]; 9′): 0%; % KD and Mortality ([2]; 15′): 0%; % KD and Mortality ([2]; 30′): 0%; % KD and Mortality ([2]; 1 h): 0%; % KD and Mortality ([2]; 2 h): 0%; % KD and Mortality ([2]; 3 h): 0%; % KD and Mortality ([2]; 4 h): 0%; % KD and Mortality ([2]; 24 h (mortality)): 0%
